Laboratory results reported in ChEMBL document CHEMBL1649080, “Identification of a potent Janus kinase 3 inhibitor with high selectivity within the Janus kinase family” (J Med Chem, 2011).

How the values were obtained:
[1] = biological target: T1, Tyrosine-protein kinase JAK3 (Homo sapiens, UniProt P52333); format: cell-based
T1 sequence (P52333 whole entry): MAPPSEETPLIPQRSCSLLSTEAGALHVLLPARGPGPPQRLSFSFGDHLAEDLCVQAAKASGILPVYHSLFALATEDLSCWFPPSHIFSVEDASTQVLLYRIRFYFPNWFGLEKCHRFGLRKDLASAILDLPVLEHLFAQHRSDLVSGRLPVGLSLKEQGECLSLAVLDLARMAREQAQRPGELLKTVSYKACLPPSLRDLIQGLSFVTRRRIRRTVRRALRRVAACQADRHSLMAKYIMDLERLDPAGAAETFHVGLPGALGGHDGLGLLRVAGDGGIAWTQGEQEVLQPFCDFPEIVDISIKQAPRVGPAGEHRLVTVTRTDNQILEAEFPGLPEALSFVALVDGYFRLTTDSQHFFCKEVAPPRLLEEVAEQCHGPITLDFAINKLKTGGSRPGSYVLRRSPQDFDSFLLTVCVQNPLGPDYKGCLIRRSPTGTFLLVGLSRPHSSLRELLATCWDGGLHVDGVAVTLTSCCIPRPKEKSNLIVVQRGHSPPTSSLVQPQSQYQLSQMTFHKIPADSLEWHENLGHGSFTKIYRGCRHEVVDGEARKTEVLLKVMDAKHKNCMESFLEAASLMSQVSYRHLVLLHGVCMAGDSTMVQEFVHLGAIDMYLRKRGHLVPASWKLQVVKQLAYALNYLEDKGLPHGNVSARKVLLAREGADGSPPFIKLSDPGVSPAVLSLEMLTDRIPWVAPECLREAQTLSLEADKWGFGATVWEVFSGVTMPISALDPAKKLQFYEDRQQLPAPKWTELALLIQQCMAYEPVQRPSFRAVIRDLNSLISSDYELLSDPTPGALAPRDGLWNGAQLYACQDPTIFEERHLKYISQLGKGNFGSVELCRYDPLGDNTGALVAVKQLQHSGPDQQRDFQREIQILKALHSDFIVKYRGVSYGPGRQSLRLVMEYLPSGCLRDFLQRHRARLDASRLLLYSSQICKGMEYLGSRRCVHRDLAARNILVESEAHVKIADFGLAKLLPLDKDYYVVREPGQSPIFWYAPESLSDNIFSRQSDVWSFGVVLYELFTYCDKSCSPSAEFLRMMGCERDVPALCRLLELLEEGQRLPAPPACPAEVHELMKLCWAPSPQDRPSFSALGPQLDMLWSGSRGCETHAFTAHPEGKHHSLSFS

[2] = biological target: Tyrosine-protein kinase JAK1 (Homo sapiens, UniProt P23458)
[3] = biological target: Tyrosine-protein kinase JAK2 (Homo sapiens, UniProt O60674)
[4] = biological target: Non-receptor tyrosine-protein kinase TYK2 (Homo sapiens, UniProt P29597)
[5] = biological target: Protein kinase C alpha type (Homo sapiens, UniProt P17252); assay: Inhibition of PKCalpha
[6] = biological target: Protein kinase C theta type (Homo sapiens, UniProt Q04759); assay: Inhibition of PKCtheta
[7] = biological target: Glycogen synthase kinase-3 beta (Homo sapiens, UniProt P49841); assay: Inhibition of GSK3-beta
[8] = biological target: T2, Tyrosine-protein kinase JAK3 (Mus musculus, UniProt Q62137)
T2 sequence (Q62137 whole entry): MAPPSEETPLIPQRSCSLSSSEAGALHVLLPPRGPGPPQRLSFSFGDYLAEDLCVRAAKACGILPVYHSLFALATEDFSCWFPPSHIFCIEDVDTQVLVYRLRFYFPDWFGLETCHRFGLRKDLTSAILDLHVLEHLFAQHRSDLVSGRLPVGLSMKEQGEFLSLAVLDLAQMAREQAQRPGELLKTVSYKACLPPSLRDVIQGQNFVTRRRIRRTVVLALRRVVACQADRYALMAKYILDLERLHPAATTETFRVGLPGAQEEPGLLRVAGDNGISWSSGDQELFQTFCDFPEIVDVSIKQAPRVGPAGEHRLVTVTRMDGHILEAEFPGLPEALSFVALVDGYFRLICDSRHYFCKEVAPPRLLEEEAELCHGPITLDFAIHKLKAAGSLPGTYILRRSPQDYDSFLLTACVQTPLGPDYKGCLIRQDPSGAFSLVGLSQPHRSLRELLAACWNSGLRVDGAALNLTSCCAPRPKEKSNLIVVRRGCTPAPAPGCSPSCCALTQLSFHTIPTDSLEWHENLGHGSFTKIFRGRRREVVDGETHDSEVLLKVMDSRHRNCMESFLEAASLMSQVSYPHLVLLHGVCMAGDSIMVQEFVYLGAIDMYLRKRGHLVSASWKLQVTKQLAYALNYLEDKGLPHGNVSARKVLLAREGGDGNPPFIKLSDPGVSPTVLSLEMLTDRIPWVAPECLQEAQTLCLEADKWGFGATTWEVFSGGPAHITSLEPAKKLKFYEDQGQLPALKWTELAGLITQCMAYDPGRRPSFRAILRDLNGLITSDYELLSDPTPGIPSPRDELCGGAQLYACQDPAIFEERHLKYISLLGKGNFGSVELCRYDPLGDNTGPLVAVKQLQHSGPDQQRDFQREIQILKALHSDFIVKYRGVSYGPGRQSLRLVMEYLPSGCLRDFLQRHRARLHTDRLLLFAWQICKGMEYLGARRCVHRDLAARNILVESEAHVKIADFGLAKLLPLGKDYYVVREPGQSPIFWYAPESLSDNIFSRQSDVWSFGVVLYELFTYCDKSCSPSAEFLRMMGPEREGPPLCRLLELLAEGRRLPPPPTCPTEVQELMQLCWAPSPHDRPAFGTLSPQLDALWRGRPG
Description: Inhibition of Jak3-mediated IL2-induced Stat5 phosphorylation in mouse CTLL cells by cell-based assay

Jurkat [9] = conditions: human, 0.33 µM
Description: Drug uptake in human Jurkat cells assessed as whole cell extract measured per 50000 cells at 0.33 uM in growth medium by LC-MS/MS analysis

Jurkat [10] = conditions: human, 1 µM
Description: Drug uptake in human Jurkat cells assessed as whole cell extract measured per 50000 cells at 1 uM in growth medium by LC-MS/MS analysis

Jurkat [11] = conditions: human, 3.3 µM
Description: Drug uptake in human Jurkat cells assessed as whole cell extract measured per 50000 cells at 3.3 uM in growth medium by LC-MS/MS analysis

Jurkat [12] = conditions: human, 10 µM
Description: Drug uptake in human Jurkat cells assessed as whole cell extract measured per 50000 cells at 10 uM in growth medium by LC-MS/MS analysis

CTLL [13] = conditions: mouse, 0.33 µM
Description: Drug uptake in mouse CTLL cells assessed as whole cell extract measured per 50000 cells at 0.33 uM in growth medium by LC-MS/MS analysis

CTLL [14] = conditions: mouse, 1 µM
Description: Drug uptake in mouse CTLL cells assessed as whole cell extract measured per 50000 cells at 1 uM in growth medium by LC-MS/MS analysis

CTLL [15] = conditions: mouse, 3.3 µM
Description: Drug uptake in mouse CTLL cells assessed as whole cell extract measured per 50000 cells at 3.3 uM in growth medium by LC-MS/MS analysis

CTLL [16] = conditions: mouse, 10 µM
Description: Drug uptake in mouse CTLL cells assessed as whole cell extract measured per 50000 cells at 10 uM in growth medium by LC-MS/MS analysis

Jurkat [17] = assay: cells; conditions: Homo sapiens
Description: Inhibition of antiTCR/antiCD28-stimulated IL2 production in human Jurkat cells by measuring bioluminescence

in vitro = conditions: human, Caco-2

Chain of Non-receptor tyrosine-protein kinase TYK2 (P29597 whole entry): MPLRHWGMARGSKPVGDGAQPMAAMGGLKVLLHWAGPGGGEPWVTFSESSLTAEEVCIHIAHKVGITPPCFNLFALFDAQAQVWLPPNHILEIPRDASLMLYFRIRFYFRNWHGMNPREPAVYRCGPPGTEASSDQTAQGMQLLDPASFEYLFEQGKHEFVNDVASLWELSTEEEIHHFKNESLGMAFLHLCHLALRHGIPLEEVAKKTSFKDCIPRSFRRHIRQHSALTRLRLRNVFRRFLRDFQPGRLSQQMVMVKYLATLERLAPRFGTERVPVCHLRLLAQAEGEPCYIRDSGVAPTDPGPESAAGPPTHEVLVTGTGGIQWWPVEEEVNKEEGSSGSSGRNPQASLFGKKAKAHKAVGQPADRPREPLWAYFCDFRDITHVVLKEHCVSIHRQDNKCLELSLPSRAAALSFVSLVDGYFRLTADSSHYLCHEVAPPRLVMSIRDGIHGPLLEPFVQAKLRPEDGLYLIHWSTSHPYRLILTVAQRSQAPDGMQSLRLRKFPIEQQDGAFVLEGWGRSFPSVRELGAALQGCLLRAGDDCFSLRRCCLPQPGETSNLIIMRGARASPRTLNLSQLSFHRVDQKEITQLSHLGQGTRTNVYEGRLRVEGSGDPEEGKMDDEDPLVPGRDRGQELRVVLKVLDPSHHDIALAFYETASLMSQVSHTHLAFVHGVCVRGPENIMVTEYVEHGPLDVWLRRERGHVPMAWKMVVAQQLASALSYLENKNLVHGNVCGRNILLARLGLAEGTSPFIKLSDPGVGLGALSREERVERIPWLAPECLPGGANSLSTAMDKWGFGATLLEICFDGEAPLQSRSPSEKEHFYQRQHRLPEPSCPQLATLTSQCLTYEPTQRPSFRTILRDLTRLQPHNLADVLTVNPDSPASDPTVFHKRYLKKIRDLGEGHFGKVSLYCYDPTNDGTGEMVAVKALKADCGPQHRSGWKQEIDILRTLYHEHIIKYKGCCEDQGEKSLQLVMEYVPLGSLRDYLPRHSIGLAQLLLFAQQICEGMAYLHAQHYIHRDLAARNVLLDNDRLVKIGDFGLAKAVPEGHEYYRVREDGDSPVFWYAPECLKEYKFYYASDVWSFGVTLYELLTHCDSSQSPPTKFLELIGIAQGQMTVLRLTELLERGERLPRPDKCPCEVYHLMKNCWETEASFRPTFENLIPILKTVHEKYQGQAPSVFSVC
Chain of Tyrosine-protein kinase JAK2 (O60674 whole entry): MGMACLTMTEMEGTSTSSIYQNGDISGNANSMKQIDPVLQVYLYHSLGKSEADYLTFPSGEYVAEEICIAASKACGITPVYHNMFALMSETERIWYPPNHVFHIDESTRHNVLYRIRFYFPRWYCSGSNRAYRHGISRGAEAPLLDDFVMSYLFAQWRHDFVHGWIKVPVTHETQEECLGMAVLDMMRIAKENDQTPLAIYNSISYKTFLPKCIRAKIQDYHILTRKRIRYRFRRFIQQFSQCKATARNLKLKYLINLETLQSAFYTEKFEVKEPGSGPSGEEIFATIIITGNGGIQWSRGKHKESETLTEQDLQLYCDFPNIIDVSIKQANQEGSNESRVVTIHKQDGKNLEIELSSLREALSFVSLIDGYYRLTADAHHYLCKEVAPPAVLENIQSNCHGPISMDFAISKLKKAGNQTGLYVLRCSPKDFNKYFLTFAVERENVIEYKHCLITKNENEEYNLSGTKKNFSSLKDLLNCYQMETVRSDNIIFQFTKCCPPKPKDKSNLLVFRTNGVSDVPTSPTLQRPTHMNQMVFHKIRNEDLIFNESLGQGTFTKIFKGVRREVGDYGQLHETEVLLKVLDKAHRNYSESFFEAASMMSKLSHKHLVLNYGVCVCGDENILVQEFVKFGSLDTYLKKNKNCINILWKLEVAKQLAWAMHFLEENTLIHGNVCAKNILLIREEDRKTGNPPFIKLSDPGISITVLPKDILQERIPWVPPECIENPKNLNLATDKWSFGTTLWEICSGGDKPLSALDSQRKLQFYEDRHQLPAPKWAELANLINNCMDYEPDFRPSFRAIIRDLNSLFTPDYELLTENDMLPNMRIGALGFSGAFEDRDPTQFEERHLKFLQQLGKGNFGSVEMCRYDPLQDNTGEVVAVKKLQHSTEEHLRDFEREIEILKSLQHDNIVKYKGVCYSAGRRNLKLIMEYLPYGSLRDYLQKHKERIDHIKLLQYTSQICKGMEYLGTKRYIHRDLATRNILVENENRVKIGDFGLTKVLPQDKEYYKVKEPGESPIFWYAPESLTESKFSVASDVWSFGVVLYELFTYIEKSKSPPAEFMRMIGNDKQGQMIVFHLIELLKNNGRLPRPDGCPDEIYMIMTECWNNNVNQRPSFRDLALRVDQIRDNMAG
Chain of Tyrosine-protein kinase JAK1 (P23458 whole entry): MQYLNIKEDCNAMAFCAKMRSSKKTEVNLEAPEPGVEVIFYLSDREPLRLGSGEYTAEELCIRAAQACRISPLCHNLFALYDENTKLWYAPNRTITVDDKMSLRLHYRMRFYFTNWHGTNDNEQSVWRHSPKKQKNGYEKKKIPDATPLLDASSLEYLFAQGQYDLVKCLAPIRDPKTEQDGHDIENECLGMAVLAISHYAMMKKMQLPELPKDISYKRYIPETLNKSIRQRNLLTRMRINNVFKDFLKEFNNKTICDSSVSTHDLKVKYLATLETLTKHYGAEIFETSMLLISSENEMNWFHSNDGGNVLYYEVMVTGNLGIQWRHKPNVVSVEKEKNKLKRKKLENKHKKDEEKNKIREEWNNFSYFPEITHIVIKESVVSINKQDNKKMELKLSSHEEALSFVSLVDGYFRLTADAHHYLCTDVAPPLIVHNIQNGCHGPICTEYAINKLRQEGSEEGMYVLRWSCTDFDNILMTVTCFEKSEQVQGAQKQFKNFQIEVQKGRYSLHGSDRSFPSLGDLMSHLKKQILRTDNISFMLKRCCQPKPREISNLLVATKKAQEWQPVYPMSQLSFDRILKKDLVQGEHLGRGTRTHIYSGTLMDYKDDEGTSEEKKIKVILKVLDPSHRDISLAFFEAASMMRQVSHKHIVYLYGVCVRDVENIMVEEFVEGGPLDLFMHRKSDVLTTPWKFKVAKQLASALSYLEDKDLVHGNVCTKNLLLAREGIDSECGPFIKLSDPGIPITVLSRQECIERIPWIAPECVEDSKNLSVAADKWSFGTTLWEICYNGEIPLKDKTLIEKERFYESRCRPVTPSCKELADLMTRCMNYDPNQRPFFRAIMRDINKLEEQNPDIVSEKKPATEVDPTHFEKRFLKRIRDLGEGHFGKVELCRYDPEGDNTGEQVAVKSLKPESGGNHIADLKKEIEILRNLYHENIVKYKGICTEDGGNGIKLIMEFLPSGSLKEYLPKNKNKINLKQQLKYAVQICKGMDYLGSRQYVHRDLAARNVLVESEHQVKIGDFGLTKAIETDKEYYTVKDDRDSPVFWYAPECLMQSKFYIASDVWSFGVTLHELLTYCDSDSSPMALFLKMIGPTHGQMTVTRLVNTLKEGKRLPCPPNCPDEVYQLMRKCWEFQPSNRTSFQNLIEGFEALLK
Chain of Protein kinase C theta type (Q04759 whole entry): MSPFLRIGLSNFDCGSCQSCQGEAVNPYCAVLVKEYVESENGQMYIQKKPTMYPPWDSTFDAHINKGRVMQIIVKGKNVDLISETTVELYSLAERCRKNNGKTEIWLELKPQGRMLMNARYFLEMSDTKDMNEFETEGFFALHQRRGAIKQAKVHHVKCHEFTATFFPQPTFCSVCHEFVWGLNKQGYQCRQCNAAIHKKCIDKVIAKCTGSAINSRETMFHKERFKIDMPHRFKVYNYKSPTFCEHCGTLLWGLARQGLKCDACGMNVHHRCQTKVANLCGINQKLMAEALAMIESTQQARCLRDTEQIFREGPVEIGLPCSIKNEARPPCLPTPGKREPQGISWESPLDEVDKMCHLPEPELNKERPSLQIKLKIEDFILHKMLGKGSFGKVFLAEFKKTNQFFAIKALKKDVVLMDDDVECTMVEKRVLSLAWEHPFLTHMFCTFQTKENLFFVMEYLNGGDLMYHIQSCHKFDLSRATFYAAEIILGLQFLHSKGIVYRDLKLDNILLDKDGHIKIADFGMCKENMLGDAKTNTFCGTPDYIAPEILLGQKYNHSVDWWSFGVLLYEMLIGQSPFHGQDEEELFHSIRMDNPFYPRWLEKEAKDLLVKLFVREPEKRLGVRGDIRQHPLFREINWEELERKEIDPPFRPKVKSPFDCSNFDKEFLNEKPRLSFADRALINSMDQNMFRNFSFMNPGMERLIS

Structure (SMILES) | IC50 [1] [nM] | IC50 [2] [nM] | IC50 [3] [nM] | IC50 [4] [nM] | other results
O=C1NC(=O)C(c2c[nH]c3ccccc23)=C1c1cc(N2CCNCC2)ccc1C(F)(F)F | 133 | 737 | 4700 | > 10000 | –
O=C1CCN(c2ncc(C(F)(F)F)c(C3=C(c4c[nH]c5ccccc45)C(=O)NC3=O)n2)CC1 | – | 253 | 330 | 4330 | –
CN(C)c1ccc(C(F)(F)F)c(C2=C(c3c[nH]c4ccccc34)C(=O)NC2=O)c1 | 423 | 4700 | 9150 | > 10000 | –
O=C1NC(=O)C(c2c[nH]c3ccccc23)=C1c1cc(F)ccc1C(F)(F)F | > 10000 | > 10000 | > 10000 | > 10000 | –
O=CN1CCN(c2ccc(C(F)(F)F)c(C3=C(c4c[nH]c5ccccc45)C(=O)NC3=O)c2)CC1 | 36 | 754 | 1440 | 5040 | –
CC(C)(O)C(=O)N1CCN(c2ccc(C(F)(F)F)c(C3=C(c4c[nH]c5ccccc45)C(=O)NC3=O)c2)CC1 | – | – | – | – | IC50 [5]: 13 nM; IC50 [6]: 68 nM; IC50 [7]: 3 nM; IC50 [8]: 1290 nM; Drug uptake (Jurkat [9]): 2.4 pmol; Drug uptake (Jurkat [10]): 7.88 pmol; Drug uptake (Jurkat [11]): 23.48 pmol; Drug uptake (Jurkat [12]): 55.58 pmol; Drug uptake (CTLL [13]): 3.12 pmol; Drug uptake (CTLL [14]): 10.97 pmol; Drug uptake (CTLL [15]): 31.27 pmol; Drug uptake (CTLL [16]): 64.33 pmol; IC50 (Jurkat [17]): 689 nM; Papp A→B (in vitro): 3 ×10⁻⁶ cm/s
O=C1NC(=O)C(c2c[nH]c3ccccc23)=C1c1cc(N2CCOCC2)ccc1C(F)(F)F | 460 | 6500 | > 10000 | > 10000 | –
